# From patent publication US10420749B2, “Crystalline form of lorlatinib free base” (Pfizer Inc., priority 2015, dated 2019)
# “Also recorded” adds a separate entry of the source.
# Assays:
# Assay type in all cases: physicochemical
# [1] = Thermodynamic stability: slurry experiments, solid form evaluated by PXRD; conditions: for Slurry Output (solid form): 2 weeks
# Experimental: The thermodynamic stability of anhydrous lorlatinib free base (Form 7) was evaluated employing slurry experiments under a range of water activity and temperature conditions. […] After 2 weeks, the solids in equilibrium were isolated and the solid form was evaluated by PXRD.
# [2] = Solid-state physical stability of Form 7 API at elevated humidity / accelerated conditions
# From the text: The physical stability of anhydrous lorlatinib free base (Form 7) API was investigated at elevated relative humidities (% RH) for extended time period and at accelerated stability conditions for shorter period.
# [3] = Physical stability in the drug product by FT-Raman and Solid State NMR spectroscopy; conditions: for amount of physical impurity: in drug product
# From the text: The physical stabilities of lorlatinib Form 7 and acetic acid solvate in the drug product were investigated under a variety of conditions using FT-Raman and Solid State NMR spectroscopy.
structure (smiles),measurement,setting,value
"C[C@H]1Oc2cc(cnc2N)-c2c(nn(C)c2C#N)CN(C)C(=O)c2ccc(F)cc21 [Form 7, (10R)-7-amino-12-fluoro-2,10,16-trimethyl-15-oxo-10,15,16,17-tetrahydro-2H-8,4-(metheno)pyrazolo[4,3-h][2,5,11]benzoxadiazacyclotetradecine-3-carbonitrile]",Slurry Output (solid form),"[1]; IPA, water activity 0.25, 5° C.",Form 16
same,Slurry Output (solid form),"[1]; IPA, water activity 0.25, 40° C.",Form 7
same,Slurry Output (solid form),"[1]; IPA, water activity 0.25, RT",Form 7
same,Slurry Output (solid form),"[1]; IPA, water activity 0.50, 5° C.",Form 13
same,Slurry Output (solid form),"[1]; IPA, water activity 0.50, 40° C.",Form 5
same,Slurry Output (solid form),"[1]; IPA, water activity 0.50, RT",Form 13
same,Slurry Output (solid form),"[1]; IPA, water activity 0.70, 5° C.",Form 13
same,Slurry Output (solid form),"[1]; IPA, water activity 0.70, 40° C.",Form 5
same,Slurry Output (solid form),"[1]; IPA, water activity 0.70, RT",Form 13
same,Slurry Output (solid form),"[1]; IPA, water activity 0.90, 5° C.",Form 13
same,Slurry Output (solid form),"[1]; IPA, water activity 0.90, 40° C.",Form 13
same,Slurry Output (solid form),"[1]; IPA, water activity 0.90, RT",Form 13
same,Slurry Output (solid form),"[1]; MiBK, water activity 0, 5° C.",Form 7
same,Slurry Output (solid form),"[1]; MiBK, water activity 0, 40° C.",Form 7
same,Slurry Output (solid form),"[1]; MiBK, water activity 0, RT",Form 7
same,Slurry Output (solid form),"[1]; TBME, water activity 0, 5° C.",Form 7
same,Slurry Output (solid form),"[1]; TBME, water activity 0, 40° C.",Form 7
same,Slurry Output (solid form),"[1]; TBME, water activity 0, RT",Form 7
same,Slurry Output (solid form),"[1]; Toluene, water activity 0, 5° C.",Form 7
same,Slurry Output (solid form),"[1]; Toluene, water activity 0, 40° C.",Form 7
same,Slurry Output (solid form),"[1]; Toluene, water activity 0, RT",Form 7
same,Slurry Output (solid form),"[1]; Water, water activity 1.00, 5° C.",Form 7 + Form 18
same,Slurry Output (solid form),"[1]; Water, water activity 1.00, 40° C.",Form 7
same,Slurry Output (solid form),"[1]; Water, water activity 1.00, RT",Form 18
same,"Thermodynamic stability, overall outcome of slurry experiments","[1]; diverse solvent systems, 5° C., room temperature and 40° C., water activities 0.25 to 1.00, 2 weeks",does not convert to a different anhydrous solid state
same,Slurry Output (solid form),"[1]; iProAc, water activity 0, 5° C.",Form 7
same,Slurry Output (solid form),"[1]; iProAc, water activity 0, 40° C.",Form 7
same,Slurry Output (solid form),"[1]; iProAc, water activity 0, RT",Form 7
same,Slurry Output (solid form),"[1]; nBuOH, water activity 0, 5° C.",Form 7
same,Slurry Output (solid form),"[1]; nBuOH, water activity 0, 40° C.",Form 7
same,Slurry Output (solid form),"[1]; nBuOH, water activity 0, RT",Form 20
same,Solid Form after storage (physical stability),"[2]; 70° C./75% RH, 1 week",did not undergo any physical change; also recorded: Form 7
same,Solid Form after storage (physical stability),"[2]; 75% RH, ambient temperature, 12 months",did not undergo any physical change; also recorded: Form 7
same,Solid Form after storage (physical stability),"[2]; 80° C./40% RH, 1 week",Form 7
same,Physical change after storage (physical stability),"[2]; 80° C./75% RH, 1 week (as printed in text)",did not undergo any physical change
same,Solid Form after storage (physical stability),"[2]; 90% RH, ambient temperature, 12 months",did not undergo any physical change; also recorded: Form 7
same,amount of physical impurity,"[3]; 25° C./60% RH, 12 months",No change detected
same,amount of physical impurity,"[3]; 30° C./65% RH, 12 months",No change detected
same,amount of physical impurity,"[3]; 50° C./75% RH, 2 weeks",No change detected
same,amount of physical impurity,"[3]; 70° C./10% RH, 3 weeks",No change detected
same,amount of physical impurity,"[3]; 70° C./40% RH, 2 weeks",No change detected
same,amount of physical impurity,"[3]; 70° C./75% RH, 1 week",No change detected
same,physical stability relative to the acetic acid solvate of lorlatinib free base,[3]; representative drug product formulation,superior physical stability
"CC(=O)O.C[C@H]1Oc2cc(cnc2N)-c2c(nn(C)c2C#N)CN(C)C(=O)c2ccc(F)cc21 [lorlatinib acetic acid solvate, reference compound]",amount of physical impurity,"[3]; 70° C./10% RH, 3 weeks",impurity >50%
same,amount of physical impurity,"[3]; 70° C./40% RH, 2 weeks",impurity >50%
same,amount of physical impurity,"[3]; 70° C./75% RH, 1 week",impurity >50%
